Results on 4 compounds are retold here after US20260232706A1, “1H-PYRAZOLE ANALOGUES AND METHODS AND USES THEREOF” (University of Manitoba, priority 2022, published 2026).

For data set [1] the following is noted: cited from earlier work.
Data set [2] deals with neuroblastoma-spinal cord hybrid NSC-34 cells. The experiment in a line: Neuroprotective effect/cell viability analysis in NSC-34 cells against H2O2 induced oxidative stress. It counts as cell-based. The settings on record: for neuroprotection in scavenging neurotoxic effects of H2O2 compared to EDR / viability compared to EDR: 250 μM H2O2; for viability compared to EDR: 50 μM dose. The method, then: (§1) Methods: The in vitro properties and antioxidant abilities of the synthesized B^5-EDR analogues were assessed in cell-based assays. […] The methodology employed for each of these assays is detailed below.
(iii) Methodology for neuroprotective effect/cell viability analysis in (NSC-34) cells (FIGS. 8A-B): Briefly, NSC-34 cells with about 20 k cells per well in 96 well plates were cultured in a complete medium consisting of high glucose Dulbecco's modified eagle medium (DMEM) (Thermo Fisher Scientific) supplemented with about 10% US-origin fetal bovine serum (Thermo Fisher Scientific), GlutaMAX-1, about 200 mM (100×) (Thermo Fisher Scientific), about 1% 100 mM Sodium pyruvate and about 1% 10,000 U/mL penicillin-streptomycin solution (Thermo Fisher Scientific) for about 20 h to reach confluency of about 70%—about 75%. All the cells were cultured in an incubator with about 5% of CO2 at about 37° C. About 20 kcells/100 μl/well were seeded in 96 well plates for about 20 h in triplicates. […] After about 1 h, the cells were treated with 250 μM of H2O2 for about 2 h. After a total period of about 3 h, about 10 μl of WST-8 reagent was added in each well and the absorbance readings were recorded after about 2.5 h at about 450 nm. All the experiments were repeated at least three times and measurements were run in triplicates.

The test system of the next data set is ALS. The settings on record: patients in early stages, drug for 6 months or more; cited from earlier work.
The subject of data set [3] is neuroblastoma-spinal cord hybrid NSC-34 cells. The experiment in a line: Neuroprotective effect/cell viability analysis in NSC-34 cells against H2O2 induced oxidative stress. The class given is cell-based. The settings on record: prophylactic treatment, 250 μM H2O2, FIG. 7A.
For another data set, the target named is CYP3A4 enzymes (Homo sapiens, UniProt P08684). The settings on record: cited from earlier work.
Chain of CYP3A4 enzymes (P08684 whole entry): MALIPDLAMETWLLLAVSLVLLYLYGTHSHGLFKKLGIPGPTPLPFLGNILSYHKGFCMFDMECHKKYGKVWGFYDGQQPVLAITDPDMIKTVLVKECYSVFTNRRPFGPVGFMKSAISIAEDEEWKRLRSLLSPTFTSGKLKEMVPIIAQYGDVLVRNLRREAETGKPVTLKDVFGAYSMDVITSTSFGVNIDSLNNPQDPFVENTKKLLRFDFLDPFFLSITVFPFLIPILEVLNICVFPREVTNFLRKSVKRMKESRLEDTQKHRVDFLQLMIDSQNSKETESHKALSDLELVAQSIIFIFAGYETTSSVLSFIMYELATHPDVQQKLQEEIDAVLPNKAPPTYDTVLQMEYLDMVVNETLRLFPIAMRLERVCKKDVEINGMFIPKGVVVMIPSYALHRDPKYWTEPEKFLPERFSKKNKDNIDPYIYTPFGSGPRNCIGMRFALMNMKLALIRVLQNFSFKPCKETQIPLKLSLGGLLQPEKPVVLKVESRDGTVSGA
For data set [4], the target named is P-glycoprotein (Pgp) efflux pump (Homo sapiens, UniProt P08183). The settings on record: cited from earlier work.
Chain of P-glycoprotein (Pgp) efflux pump (P08183 whole entry): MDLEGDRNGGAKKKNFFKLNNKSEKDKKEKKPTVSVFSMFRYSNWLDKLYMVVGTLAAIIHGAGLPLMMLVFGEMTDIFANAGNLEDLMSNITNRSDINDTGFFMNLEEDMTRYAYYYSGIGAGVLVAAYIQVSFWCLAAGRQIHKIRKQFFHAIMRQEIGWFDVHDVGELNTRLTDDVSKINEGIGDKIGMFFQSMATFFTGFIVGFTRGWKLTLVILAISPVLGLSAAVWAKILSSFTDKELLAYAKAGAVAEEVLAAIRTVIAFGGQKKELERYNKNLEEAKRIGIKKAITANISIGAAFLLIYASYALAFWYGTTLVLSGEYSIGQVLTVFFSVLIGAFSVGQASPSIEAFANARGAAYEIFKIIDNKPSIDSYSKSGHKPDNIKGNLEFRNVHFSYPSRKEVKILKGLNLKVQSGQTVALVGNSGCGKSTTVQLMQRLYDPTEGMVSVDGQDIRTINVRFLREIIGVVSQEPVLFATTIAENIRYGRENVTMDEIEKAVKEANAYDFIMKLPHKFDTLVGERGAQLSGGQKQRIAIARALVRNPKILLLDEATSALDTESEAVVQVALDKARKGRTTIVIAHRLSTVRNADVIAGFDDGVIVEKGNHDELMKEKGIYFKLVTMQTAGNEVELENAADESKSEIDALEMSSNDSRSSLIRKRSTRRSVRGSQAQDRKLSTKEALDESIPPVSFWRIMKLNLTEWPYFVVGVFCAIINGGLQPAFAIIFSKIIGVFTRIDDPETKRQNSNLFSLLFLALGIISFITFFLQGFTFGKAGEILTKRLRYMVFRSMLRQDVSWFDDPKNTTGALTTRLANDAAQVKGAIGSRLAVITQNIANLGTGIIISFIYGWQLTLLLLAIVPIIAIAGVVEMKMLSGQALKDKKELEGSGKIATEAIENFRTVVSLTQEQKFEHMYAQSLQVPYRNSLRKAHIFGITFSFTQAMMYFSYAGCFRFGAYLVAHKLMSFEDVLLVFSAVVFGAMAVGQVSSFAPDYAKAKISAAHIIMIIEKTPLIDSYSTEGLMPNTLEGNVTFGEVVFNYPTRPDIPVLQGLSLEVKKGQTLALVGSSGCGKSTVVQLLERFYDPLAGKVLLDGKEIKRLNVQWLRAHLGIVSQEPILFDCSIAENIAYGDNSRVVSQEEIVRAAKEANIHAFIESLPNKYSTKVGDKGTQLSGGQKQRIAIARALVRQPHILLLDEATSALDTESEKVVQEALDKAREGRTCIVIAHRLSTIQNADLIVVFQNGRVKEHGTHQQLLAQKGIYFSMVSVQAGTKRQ
Data set [5] concerns neuroblastoma-spinal cord hybrid NSC-34 cells. Kind of data set: Neurotoxicity/cell viability analysis in NSC-34 cells (WST-8). The class given is cell-based. The settings on record: 1 to 100 μM. The method, then:
as §1
(ii) Methodology for neurotoxicity/cell viability analysis in (NSC-34) cells (FIGS. 7A-C): Briefly, NSC-34 cells with about 20 k cells per well in 96 well plates were cultured in a complete medium consisting of high glucose Dulbecco's modified eagle medium (DMEM) (Thermo Fisher Scientific) supplemented with about 10% US-origin fetal bovine serum (Thermo Fisher Scientific), GlutaMAX-1, about 200 mM (100×) (Thermo Fisher Scientific), about 1% 100 mM Sodium pyruvate and about 1% 10,000 U/mL penicillin-streptomycin solution (Thermo Fisher Scientific) for about 20 h to reach confluency of about 70%—about 75%. All the cells were cultured in an incubator with about 5% of CO2 at about 37° C. About 20 kcells/100 μl/well were seeded in 96 well plates for about 20 h in triplicates. Cells were treated with different concentration of compounds and incubated for about 20 h. […] After about 2.5 h of incubation, the absorbance of soluble coloured formazan dye was measured […] at about […] using microplate reader (Biotek instruments) with the background control as a blank. The cell viability was determined by comparing the absorbance of compounds treated cells to that of control cells. […]
(In general: Formazan colour is commonly taken as a measure of viable cells.)

The subject of data set [6] is primary cortical neuronal cells. Kind of data set: Neurotoxicity/cell viability analysis in primary cortical neuronal cells (WST-8). The class given is cell-based, mouse. The settings on record: for cell viability compared to controls: 10 μM and 1 μM, FIG. 6B. How it is done: as §1
(i) Methodology for neurotoxicity/cell viability analysis in primary cortical neuronal cells (FIGS. 6A-B): Briefly, the cerebral cortex was isolated from fetus of mouse at about 17-about 18-day gestation. After meninges and blood vessels were removed, the tissue was digested with trypsin for about 15 min at about 37° C., then incubated with DNase for about another 15 min at about 37° C. and terminated with DMEM plus about 10% fetal bovine serum. After the supernatant was removed, the tissue was added with about 5-ml neurobasal medium (Life Technologies Inc) and triturated by gently pipetting. Neuronal cells contained in the supernatant were transferred to poly-D-lysine-coated plastic culture plates, adjusted to approximately […], and cultured in neurobasal medium with GS21 supplements (Sigma-Aldrich Canada), 1× GlutaMax (Life Technologies Inc,) and about 1% penicillin-streptomycin at about 37° C. under about 5% CO2. About 100 kcells/100 μl/well were seeded in 96 well plates for 2 Div. […] On 8th Div of neurons, about 10 μl of WST reagent was added to each well and incubated for about 2 h. After about 2 h of incubation, the absorbance of soluble coloured formazan dye was measured […] at about […] using microplate reader (Biotek instruments) with the background control as a blank. The cell viability was determined by comparing the absorbance of compounds treated cells to that of control cells. Data are representative of two independent experiments, with each measurement or dose tested six times.

Regarding `CC1=NN(c2ccccc2)C(=O)C1` [EDR, 3-methyl-1-phenyl-2-pyrazolin-5-one], the aqueous solubility entry in data set [1] is “about 1.85 mg/ml”. In data set [1] (physiological pH about 7.4), the “fraction of EDR existing as an anion” value is listed as “about 71.5%” and the “fraction of EDR existing in neutral form” value is recorded as “about 28.5%”. Moreover, in data set [2] (250 μM H2O2, FIGS. 8A-B), the H2O2 scavenging effects result is recorded as “significant H2O2 scavenging effects in a dose dependent manner”. Further, in the data set with ALS, the “effect on progression of ALS” value was “delayed the progression of ALS”. The “protection from loss of cell viability induced by H2O2” value in data set [3] is “protected NSC-34 cells from loss of cell viability”. At CYP3A4 enzymes, the “metabolism by CYP3A4” value is “metabolized pre-systematically”. Moreover, in data set [4], the “P-glycoprotein efflux pump substrate status” value is given as “substrate”. In addition, in data set [5], the “neurotoxicity and cytotoxicity towards NSC-34 motor neuronal cells” value is “no neurotoxicity and cytotoxicity”. The “decrease in cell viability compared to control (DMSO)” value in data set [6] (mouse, 6 days, 25 μM) is given as roughly 70±10%.

`CC1(C)OB(c2cc(C(F)(F)F)nn2-c2ccccc2)OC1(C)C` [NS-1-12, 3-triflouromethyl-5-(4,4,5,5-tetramethyl-1,3,2-dioxaborolan-2-yl)-1-phenyl1H-pyrazole]: the “neuroprotection in scavenging neurotoxic effects of H2O2 compared to EDR” value (from here on “neuroprotection … compared to EDR”) in data set [2] (25 μM) was “better neuroprotection”. For the same compound, the “viability compared to EDR” value in data set [2] is given as “almost equal viability”.

Regarding `F[B-](F)(F)c1cc(C(F)(F)F)nn1-c1ccccc1.[K+]` [NS-1-19, Potassium trifluoro(3-triflouromethyl-1phenyl-1H-pyrazol-5-yl)borate], the “neuroprotection … compared to EDR” value in data set [2] (1 μM) and in data set [2] (25 μM) was “better neuroprotection” throughout. In addition, the “viability compared to EDR” value in data set [2] is “almost equal viability”. Further, in data set [6], the “cell viability compared to controls” value is on record as “around 100%”.

On to `Cc1cc([B-](F)(F)F)n(-c2ccccc2)n1.[K+]` [NS-1-21, Potassium trifluoro(3-methyl-1phenyl-1H-pyrazol-5-yl)borate], for which the “neuroprotection … compared to EDR” value in data set [2] (1 μM) and in data set [2] (25 μM) was “better neuroprotection” in each case. Moreover, the “viability compared to EDR” value in data set [2] is listed as “almost equal viability”. Further, in data set [6], the “cell viability compared to controls” value was “around 100%”.
